The target of the assay is HIV-1 RNase H (Human immunodeficiency virus type 1 group M subtype B, UniProt P04585). The assay is described as follows: RNase H FRET assay, HIV-1 RNase H. Type of assay: biochemical. Particulars: IC50, HIV-1 RNase H, in vitro.

Molecules are shown by their SMILES. A value given as a limit tells only on which side of the number the result lay.

In general, IC50 refers to the concentration that inhibits the measured activity by half. A higher IC50 goes with lower potency. `O=C(OC[C@H]1O[C@@H](Oc2ccc(O)cc2)[C@H](OC(=O)c2cc(O)c(O)c(O)c2)[C@@H](O)[C@@H]1O)c1ccc(O)cc1` [hyemaloside B (2), hyemaloside B] returned a half-inhibitory concentration (IC50) of over 18.3 µM.

These data come from PMC2586124 (Journal of natural products, 2008).
